Key:
sperm = settings: read-out: EC50 value in sperm motility assays
HIV = settings: read-out: IC50 value in HIV replication assays

5-bromo-6-methoxy-5,6-dihydro-AZT-5′-(p-bromophenyl methoxyalaninyl phosphate)
EC50 (sperm): 2800 nM | IC50 (HIV): 5 nM

Source: US6465641B1, “One pot synthesis of 5′-hydroxy phosphorylated nucleoside derivatives, and compounds formed thereby” (Parker Hughes Institute, priority 1999, dated 2002)
